Reference: patent US20230286970A1, “NOVEL OXADIAZOLE-BASED SELECTIVE HDAC6 INHIBITORS” (ITALFARMACO S.P.A., priority 2020, published 2023)
Where two headings read alike, the source gives them in different places.

Key:
recombinant human HDAC6 = recombinant human HDAC6 (Homo sapiens (Human), UniProt Q9UBN7); test: Enzymatic screening, HDAC6 inhibition (fluorogenic FdL_G substrate); type: biochemical
In short: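 Enzyme was preincubated with compound (8 doses, triplicate, 1% DMSO) in 25 mM Tris-HCl pH 8, 130 mM NaCl, 0.05% Tween-20, 10% glycerol, with BSA. A FLUOR DE LYS-Green substrate was then added, and fluorescence was read after developer plus 2 μM TSA.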

recombinant human HDAC1 = recombinant human HDAC1 (Homo sapiens (Human), UniProt Q13547); test: Enzymatic screening, HDAC1 inhibition (fluorogenic FdL_G substrate); type: biochemical
In short: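 Recombinant human HDAC1 inhibition was measured fluorometrically using the FLUOR DE LYS-Green (FdL_G) substrate. Compounds at 8 doses (1% DMSO final) in Tris-HCl pH 8 buffer with NaCl, Tween-20 and glycerol were preincubated in triplicate with enzyme and 1 mg/mL BSA, then given substrate. Developer I plus 2 μM TSA was added, and fluorescence read after 25 minutes in the dark.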

HDAC2 = HDAC2 (Homo sapiens (Human), UniProt Q92769); test: Enzymatic screening, HDAC2 inhibition; type: biochemical
Description: (§1) For each test compound, 100× concentrated DMSO solutions at 8 doses were prepared and then diluted in assay buffer (25 mM Tris-HCl, pH 8, 130 mM NaCl, 0.05% Tween-20, 10% Glycerol) to obtain 5× concentrated solutions in relation to the final concentrations (typical final concentration range—6.4-200000 nM or 0.18-50000 nM, final DMSO content—1%). Then 10 μL solution of each test compound concentration were placed on a 96-well plate in triplicate and 15 μL of 3.33× concentrated enzyme solution in the assay buffer containing 3.33× concentrated BSA (final BSA concentration—2 mg/mL for HDAC4, HDAC5 and HDAC9 or 1 mg/mL for other isoforms) and in the case of HDAC6-3.33× concentrated TCEP (final TCEP concentration—200 μM) were added to each well. After a period of preincubation (incubation times and temperatures vary for different isoforms and are shown in table 1) 25 μL of solution containing the substrate were added. As substrate, FLUOR DE LYS® deacetylase substrate (Enzo Life Sciences, cat: BML-KI104, FdL), FLUOR DE LYS®-Green substrate (Enzo Life Sciences, cat: BML-KI572, FdL_G) or Boc-Lys(Tfa)-AMC (Bachem, cat: 4060676.005, Tfal)—2× concentrated solution in assay buffer were used. Following a reaction period (reaction times and temperatures vary for different isoforms and are reported in Table 1), 50 μL of the development solution consisting of concentrate FLUOR DE LYS® developer I (Enzo Life Sciences, ca: BML-KI105), diluted 200 times in buffer (50 mM Tris-HCl, pH 8, 137 mM NaCl, 2.7 mM KCl, 1 mM MgCl2) plus 2 μM TSA was added and, after 25 minutes at room temperature in the dark, using the Victor 1420 Multilabel Counter Perkin Elmer Wallac instrument, the fluorescence reading was carried out.

HDAC3 = HDAC3 (Homo sapiens (Human), UniProt O15379); test: Enzymatic screening, HDAC3 inhibition; type: biochemical
Description: as §1

HDAC4 = HDAC4 (Homo sapiens (Human), UniProt P56524); test: Enzymatic screening, HDAC4 inhibition; type: biochemical
Description: as §1

HDAC5 = HDAC5 (Homo sapiens (Human), UniProt Q9UQL6); test: Enzymatic screening, HDAC5 inhibition; type: biochemical
Description: as §1

HDAC7 = HDAC7 (Homo sapiens (Human), UniProt Q8WUI4); test: Enzymatic screening, HDAC7 inhibition; type: biochemical
Description: as §1

HDAC8 = HDAC8 (Homo sapiens (Human), UniProt Q9BY41); test: Enzymatic screening, HDAC8 inhibition; type: biochemical
Description: as §1

HDAC9 = HDAC9 (Homo sapiens (Human), UniProt Q9UKV0); test: Enzymatic screening, HDAC9 inhibition; type: biochemical
Description: as §1

HDAC10 = HDAC10 (Homo sapiens (Human), UniProt Q969S8); test: Enzymatic screening, HDAC10 inhibition; type: biochemical
Description: as §1

HDAC11 = HDAC11 (Homo sapiens (Human), UniProt Q96DB2); test: Enzymatic screening, HDAC11 inhibition; type: biochemical
Description: as §1

[1] = system: α-tubulin acetylation in 697 cell line; test: In vitro α-tubulin acetylation in 697 cell line (ELISA); type: cell-based; details: 16 hours, read-out: fold increase @ 1 uM TubAc (ratio of acetylated tubulin and total tubulin towards control)
In short: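 B 697 cells in RPMI 10% FCS were treated for 16 h at 37 °C with compound at 1000, 333, 111 or 37 nM. Lysate (0.3 μg protein) was coated and probed by ELISA for acetylated and total α-tubulin, read at 450 nm. The acetylated/total ratio is given as fold over untreated control.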

[2] = 90 min, pH 7.4
[3] = 90 min, pH 7.4; remark: listed apart in the source
Description: (§2) Test compounds were incubated in rat and human liver S9 fraction at 37° C. up to 90 minutes in order to evaluate their stability to Phase I metabolism by hepatic enzymes. Each test compound was incubated at μM concentration (50 μM when the samples were analysed by UV/HPLC, 1 or 2 μM when the samples were analysed by LC-MS/MS) with S9 fraction (protein content 2 mg/m L) in 100 mM phosphate buffer (pH 7.4), 3.3 mM MgCl2 and 1.3 mM NADPH for 0, 10, 30, 60 and 90 minutes at 37° C. in a thermostated oscillating bath. The reaction was stopped placing samples on ice bath and adding acidified acetonitrile. After centrifugation (10 minutes at 14000 rpm) an aliquot of the supernatant was diluted with water, filtered with 0.45 μm regenerated cellulose syringe filters and injected in HPLC-UV or in LC-MS/MS. The percentage of the remaining amount at the various incubation times with respect to the initial amount were calculated.

[4] = 4 h
Description: (§3) In order to evaluate the stability to circulating enzymes, test compounds were incubated in human and rat plasma at 37° C. in a thermostated oscillating bath. Each test compound was incubated at μM concentration (50 μM when the samples were analysed by UV/HPLC, 1 or 2 μM when the samples were analysed by LC-MS/MS) for 0, 15, 30 minutes and 1, 2 and 4 hours. The reaction was stopped placing samples on ice bath and adding acidified acetonitrile. After centrifugation (10 minutes at 14000 rpm) an aliquot of the supernatant was diluted with water, filtered with 0.45 μm regenerated cellulose syringe filters and injected in HPLC-UV or in LC-MS/MS. The percentage of the remaining amount at the various incubation times with respect to the initial amount were calculated. The half-life in plasma was also calculated.

[5] = 4 h; remark: listed apart in the source
Stability in rat plasma = details: after 4 hours, 37° C.
Description: as §3

[6] = Stability in human plasma; details: after 4 hours, 37° C.
[7] = Stability to Phase I metabolism in rat S9 liver fraction; details: after 90 minutes, 37° C.
[8] = Stability to Phase I metabolism in human S9 liver fraction; details: after 90 minutes, 37° C.
Description: as §2

Chain of HDAC3 (O15379 whole entry): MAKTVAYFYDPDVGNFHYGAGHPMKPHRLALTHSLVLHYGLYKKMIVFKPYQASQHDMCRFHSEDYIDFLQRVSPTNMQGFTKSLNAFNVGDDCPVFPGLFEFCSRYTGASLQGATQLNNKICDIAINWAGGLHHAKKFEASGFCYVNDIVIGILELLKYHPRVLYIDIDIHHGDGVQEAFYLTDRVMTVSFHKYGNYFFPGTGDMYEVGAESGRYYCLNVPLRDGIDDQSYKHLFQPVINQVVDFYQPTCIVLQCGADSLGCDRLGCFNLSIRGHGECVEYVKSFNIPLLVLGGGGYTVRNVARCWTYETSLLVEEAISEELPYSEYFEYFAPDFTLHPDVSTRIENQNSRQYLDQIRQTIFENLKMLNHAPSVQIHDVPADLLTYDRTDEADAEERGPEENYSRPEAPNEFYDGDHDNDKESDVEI
Chain of HDAC3 (Q9Y618 395-489 partner): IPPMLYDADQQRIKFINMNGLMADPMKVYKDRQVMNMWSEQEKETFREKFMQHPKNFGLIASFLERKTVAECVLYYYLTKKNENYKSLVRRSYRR
Chain of HDAC5 (Q9UQL6 whole entry): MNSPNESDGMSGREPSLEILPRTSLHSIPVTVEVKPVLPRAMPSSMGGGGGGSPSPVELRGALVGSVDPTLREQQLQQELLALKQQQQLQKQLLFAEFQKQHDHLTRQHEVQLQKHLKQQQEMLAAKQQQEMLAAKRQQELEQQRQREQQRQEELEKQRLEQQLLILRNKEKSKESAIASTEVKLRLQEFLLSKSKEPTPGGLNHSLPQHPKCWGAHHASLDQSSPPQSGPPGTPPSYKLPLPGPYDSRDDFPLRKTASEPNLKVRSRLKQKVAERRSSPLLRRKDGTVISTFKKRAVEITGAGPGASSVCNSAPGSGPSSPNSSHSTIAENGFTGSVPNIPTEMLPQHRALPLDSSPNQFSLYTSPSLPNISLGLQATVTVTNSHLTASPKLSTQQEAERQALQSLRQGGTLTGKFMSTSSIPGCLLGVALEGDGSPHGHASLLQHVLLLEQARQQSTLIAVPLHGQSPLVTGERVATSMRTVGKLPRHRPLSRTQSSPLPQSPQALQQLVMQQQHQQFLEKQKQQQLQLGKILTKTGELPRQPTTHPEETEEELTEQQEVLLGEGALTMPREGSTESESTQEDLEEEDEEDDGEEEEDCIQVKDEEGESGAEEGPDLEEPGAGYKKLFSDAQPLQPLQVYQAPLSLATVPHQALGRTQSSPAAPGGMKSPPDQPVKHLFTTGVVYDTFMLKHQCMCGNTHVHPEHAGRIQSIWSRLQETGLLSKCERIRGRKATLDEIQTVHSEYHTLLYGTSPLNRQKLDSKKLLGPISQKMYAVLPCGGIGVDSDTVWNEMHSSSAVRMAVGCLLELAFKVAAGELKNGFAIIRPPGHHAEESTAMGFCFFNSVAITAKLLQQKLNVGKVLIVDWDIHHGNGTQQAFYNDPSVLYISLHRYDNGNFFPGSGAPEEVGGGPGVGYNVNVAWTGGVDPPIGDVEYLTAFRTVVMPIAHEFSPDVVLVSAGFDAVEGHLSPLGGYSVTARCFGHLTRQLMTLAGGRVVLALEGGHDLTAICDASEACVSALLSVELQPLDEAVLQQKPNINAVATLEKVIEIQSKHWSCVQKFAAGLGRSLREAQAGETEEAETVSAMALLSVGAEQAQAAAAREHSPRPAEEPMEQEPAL
Chain of HDAC9 (Q9UKV0 whole entry): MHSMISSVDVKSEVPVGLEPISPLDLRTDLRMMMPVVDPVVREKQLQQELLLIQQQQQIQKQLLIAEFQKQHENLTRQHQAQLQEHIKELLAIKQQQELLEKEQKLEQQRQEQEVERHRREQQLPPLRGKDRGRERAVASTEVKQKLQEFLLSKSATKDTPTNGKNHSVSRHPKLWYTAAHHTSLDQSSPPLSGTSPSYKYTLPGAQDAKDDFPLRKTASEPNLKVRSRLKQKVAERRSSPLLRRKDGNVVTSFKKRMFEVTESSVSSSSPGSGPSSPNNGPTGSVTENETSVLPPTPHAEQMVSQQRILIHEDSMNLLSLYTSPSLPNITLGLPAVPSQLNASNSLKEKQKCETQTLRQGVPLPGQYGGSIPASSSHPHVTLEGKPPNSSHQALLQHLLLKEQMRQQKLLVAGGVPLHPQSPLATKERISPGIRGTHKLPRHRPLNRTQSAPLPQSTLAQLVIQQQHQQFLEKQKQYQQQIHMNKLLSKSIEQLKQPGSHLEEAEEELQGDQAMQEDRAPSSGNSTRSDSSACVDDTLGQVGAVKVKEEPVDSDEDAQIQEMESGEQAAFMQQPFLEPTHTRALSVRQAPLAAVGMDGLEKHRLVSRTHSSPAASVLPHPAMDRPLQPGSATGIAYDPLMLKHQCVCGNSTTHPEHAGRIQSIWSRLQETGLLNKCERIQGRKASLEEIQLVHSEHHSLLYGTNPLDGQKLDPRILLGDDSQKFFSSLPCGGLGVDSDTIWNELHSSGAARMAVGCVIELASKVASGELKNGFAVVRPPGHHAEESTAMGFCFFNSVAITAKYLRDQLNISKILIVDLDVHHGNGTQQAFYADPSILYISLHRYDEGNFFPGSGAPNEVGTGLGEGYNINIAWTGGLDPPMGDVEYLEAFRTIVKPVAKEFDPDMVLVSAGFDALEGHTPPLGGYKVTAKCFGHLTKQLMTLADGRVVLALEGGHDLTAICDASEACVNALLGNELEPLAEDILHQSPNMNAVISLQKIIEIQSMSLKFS
Chain of HDAC4 (P56524 whole entry): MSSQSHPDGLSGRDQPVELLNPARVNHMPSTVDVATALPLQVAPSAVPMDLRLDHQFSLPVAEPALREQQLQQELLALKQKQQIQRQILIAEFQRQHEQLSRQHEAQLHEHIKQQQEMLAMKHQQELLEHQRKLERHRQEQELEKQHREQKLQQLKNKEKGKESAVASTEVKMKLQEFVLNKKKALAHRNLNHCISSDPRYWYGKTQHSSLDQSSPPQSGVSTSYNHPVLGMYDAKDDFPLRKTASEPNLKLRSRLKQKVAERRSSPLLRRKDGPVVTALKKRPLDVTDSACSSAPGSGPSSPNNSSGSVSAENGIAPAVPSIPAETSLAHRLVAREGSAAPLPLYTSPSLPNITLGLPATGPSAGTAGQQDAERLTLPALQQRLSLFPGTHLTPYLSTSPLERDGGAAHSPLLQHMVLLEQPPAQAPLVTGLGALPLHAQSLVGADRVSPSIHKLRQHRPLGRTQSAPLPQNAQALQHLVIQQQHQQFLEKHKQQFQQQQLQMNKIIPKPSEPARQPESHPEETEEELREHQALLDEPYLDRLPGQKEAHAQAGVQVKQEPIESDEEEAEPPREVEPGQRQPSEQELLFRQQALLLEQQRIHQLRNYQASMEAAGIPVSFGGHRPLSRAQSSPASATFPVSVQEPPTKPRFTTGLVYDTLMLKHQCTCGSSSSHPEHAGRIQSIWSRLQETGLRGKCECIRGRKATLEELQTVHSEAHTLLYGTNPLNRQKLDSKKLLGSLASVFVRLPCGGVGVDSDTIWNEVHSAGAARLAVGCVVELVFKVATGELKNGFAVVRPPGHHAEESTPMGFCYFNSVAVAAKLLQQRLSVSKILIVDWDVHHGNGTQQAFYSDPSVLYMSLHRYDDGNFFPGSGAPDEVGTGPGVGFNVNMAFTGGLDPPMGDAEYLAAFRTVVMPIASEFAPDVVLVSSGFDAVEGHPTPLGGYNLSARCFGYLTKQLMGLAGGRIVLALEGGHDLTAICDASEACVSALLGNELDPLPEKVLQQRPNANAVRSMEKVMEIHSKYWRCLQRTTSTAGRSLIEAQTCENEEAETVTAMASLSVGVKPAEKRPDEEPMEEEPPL
Chain of HDAC10 (Q969S8 whole entry): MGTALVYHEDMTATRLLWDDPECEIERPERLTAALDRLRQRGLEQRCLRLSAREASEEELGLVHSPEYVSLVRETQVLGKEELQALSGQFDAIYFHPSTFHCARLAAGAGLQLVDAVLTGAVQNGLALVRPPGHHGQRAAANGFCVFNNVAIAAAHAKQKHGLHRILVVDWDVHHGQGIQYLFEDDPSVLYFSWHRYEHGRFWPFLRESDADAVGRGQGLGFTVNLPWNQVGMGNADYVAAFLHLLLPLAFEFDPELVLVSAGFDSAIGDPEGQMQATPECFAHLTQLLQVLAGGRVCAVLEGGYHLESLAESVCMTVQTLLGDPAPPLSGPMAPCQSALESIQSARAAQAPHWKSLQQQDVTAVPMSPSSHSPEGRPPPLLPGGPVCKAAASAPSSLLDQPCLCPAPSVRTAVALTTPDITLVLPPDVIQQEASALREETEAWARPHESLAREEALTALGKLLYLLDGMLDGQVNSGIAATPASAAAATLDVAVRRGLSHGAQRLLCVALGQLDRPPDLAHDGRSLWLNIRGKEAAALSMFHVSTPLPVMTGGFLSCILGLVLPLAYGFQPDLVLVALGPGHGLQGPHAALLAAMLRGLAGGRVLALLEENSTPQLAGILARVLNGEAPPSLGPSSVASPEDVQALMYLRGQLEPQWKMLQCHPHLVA
Chain of recombinant human HDAC1 (Q13547 whole entry): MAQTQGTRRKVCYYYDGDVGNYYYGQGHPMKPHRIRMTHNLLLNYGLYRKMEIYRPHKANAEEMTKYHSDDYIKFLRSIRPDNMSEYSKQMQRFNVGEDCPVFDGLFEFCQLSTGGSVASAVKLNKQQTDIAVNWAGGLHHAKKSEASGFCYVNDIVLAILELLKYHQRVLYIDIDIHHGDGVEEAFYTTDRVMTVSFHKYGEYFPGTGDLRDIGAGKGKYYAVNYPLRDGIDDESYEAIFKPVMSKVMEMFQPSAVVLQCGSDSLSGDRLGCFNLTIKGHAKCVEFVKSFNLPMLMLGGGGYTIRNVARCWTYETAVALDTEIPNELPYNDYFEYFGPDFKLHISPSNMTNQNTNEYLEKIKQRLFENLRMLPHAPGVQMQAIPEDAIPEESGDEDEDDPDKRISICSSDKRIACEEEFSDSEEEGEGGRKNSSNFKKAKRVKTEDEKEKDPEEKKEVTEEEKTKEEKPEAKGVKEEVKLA

Row | Structure (SMILES) | IC50 (recombinant human HDAC6) | IC50 (recombinant human HDAC1) | IC50 (HDAC2) | IC50 (HDAC3) | IC50 (HDAC4) | IC50 (HDAC5) | IC50 (HDAC7) | IC50 (HDAC8) | IC50 (HDAC9) | IC50 (HDAC10) | IC50 (HDAC11) | fold induction at 1 µM [1] | residual percentage in RAT S9 FRACTION [2] | residual percentage in HUMAN S9 FRACTION [3] | residual percentage in RAT PLASMA [4] | residual percentage in HUMAN PLASMA [5] | residual percentage in RAT PLASMA (Stability in rat plasma) | residual percentage in HUMAN PLASMA [6] | residual percentage in RAT S9 FRACTION [7] | residual percentage in HUMAN S9 FRACTION [8]
1 | O=C1Nc2ccc(-c3cn(Cc4ccc(-c5nnc(C(F)F)o5)cn4)nn3)cc2C12CCNCC2 [Compd. 19, 5-(1-((5-(5-(difluoromethyl)-1,3,4-oxadiazol-2-yl)pyridin-2-yl)methyl)-1H-1,2,3-triazol-4-yl)spiro[indoline-3,4′-piperidin]-2-one] | 0.011 µM | > 200 µM | > 30 µM | > 30 µM | > 30 µM | > 30 µM | > 30 µM | 572 µM | > 30 µM | > 30 µM | > 30 µM | 4 | 94% | 96% | 83% | 83% |  |  |  | 
2 | O=C(Nc1cccc(-c2cn(Cc3ccc(-c4nnc(C(F)F)o4)c(F)c3)nn2)c1)N1CCOCC1 [compound 16, N-(3-(1-(4-(5-(difluoromethyl)-1,3,4-oxadiazol-2-yl)-3-fluorobenzyl)-1H-1,2,3-triazol-4-yl)phenyl)morpholine-4-carboxamide] | 0.029 µM | > 200 µM | > 30 µM | > 30 µM | > 30 µM | > 30 µM | > 30 µM | > 200 µM | > 30 µM | > 30 µM | > 30 µM | 19 |  |  |  |  | 84% | 75% | 88% | 86%
3 | CCNc1nc2ccc(-c3cn(Cc4ccc(-c5nnc(C(F)F)o5)cn4)nn3)cc2[nH]1 [compound 18, 5-(1-((5-(5-(difluoromethyl)-1,3,4-oxadiazol-2-yl)pyridin-2-yl)methyl)-1H-1,2,3-triazol-4-yl)-N-ethyl-1H-benzo[d]imidazol-2-amine] | 0.008 µM | > 200 µM | > 30 µM | > 30 µM | > 30 µM | > 30 µM | > 30 µM | > 200 µM | > 30 µM | > 30 µM | > 30 µM | 11 |  |  |  |  | 69% | 84% | 91% | 82%
4 | FC(F)c1nnc(-c2ccc(Cn3cnc(-c4ccc(NC5=NCCN5)cc4)c3)nc2)o1 [compound 20, N-(4-(1-((5-(5-(difluoromethyl)-1,3,4-oxadiazol-2-yl)pyridin-2-yl)methyl)-1H-imidazol-4-yl)phenyl)-4,5-dihydro-1H-imidazol-2-amine] | 0.011 µM | > 200 µM | > 30 µM | > 30 µM | > 30 µM | > 30 µM | > 30 µM | 578 µM | > 30 µM | > 30 µM | > 30 µM | 11 |  |  |  |  | 82% | 97% | 93% | 99%
5 | Nc1ccc(-c2cn(Cc3ccc(-c4nnc(C(F)F)o4)c(F)c3F)nn2)cn1 [compound 21, 5-(1-(4-(5-(difluoromethyl)-1,3,4-oxadiazol-2-yl)-2,3-difluorobenzyl)-1H-1,2,3-triazol-4-yl)pyridin-2-amine] | 0.017 µM | > 200 µM | > 30 µM | > 30 µM | > 30 µM | > 30 µM | > 30 µM | > 200 µM | > 30 µM | > 30 µM | > 30 µM | 16 |  |  |  |  | 75% | 84% | 90% | 99%
6 | FC(F)c1nnc(-c2ccc(Cn3cnc(-c4ccc(NC5=NCCN5)cc4)c3)cc2)o1 [compound 22, N-(4-(1-(4-(5-(difluoromethyl)-1,3,4-oxadiazol-2-yl)benzyl)-1H-imidazol-4-yl)phenyl)-4,5-dihydro-1H-imidazol-2-amine] | 0.017 µM | > 200 µM | > 30 µM | > 30 µM | > 30 µM | > 30 µM | > 30 µM | > 200 µM | > 30 µM | > 30 µM | > 30 µM | 17 |  |  |  |  | 96% | 92% | 98% | 88%
7 | O=C1Nc2ccc(-c3cn(Cc4ccc(-c5nnc(C(F)F)o5)cc4)nn3)cc2C12CCNCC2 [compound 46, 5-(1-(4-(5-(difluoromethyl)-1,3,4-oxadiazol-2-yl)benzyl)-1H-1,2,3-triazol-4-yl)spiro[indoline-3,4′-piperidin]-2-one] | 0.02 µM | > 200 µM |  |  |  |  |  |  |  |  |  | 5 | 60% | 81% | 72% | 74% |  |  |  | 
